SMILES strings stand for the structures. pEC50: −log10 of the molar value.

For this assay, the system named is human immunodeficiency virus type 1 (HIV-1). As to the kind of experiment: microbe, parasite or virus in culture. It counts as cell-based. To be noted: Human immunodeficiency virus 1, HeLa, 48 h, HIV-1 luciferase reporter, HeLa cells, 48 hours after infection.
Consider `COc1nc2c(cc1Cc1ccc(F)c(F)c1)c(=O)c(C(=O)O)cn2[C@H](CO)C(C)C` [Example 1B], for which the pEC50 (commonly the negative decadic logarithm of the EC50, by convention in mol/L) is below 7.00.
`COc1nc2c(cc1Cc1cccc(Cl)c1F)c(=O)c(C(=O)O)cn2[C@@H](CO)C(C)C` [Example 1C] showed a pEC50 of 7.00 to 8.00.
Regarding `COc1nc2c(cc1Cc1c(F)cc(F)cc1F)c(=O)c(C(=O)O)cn2[C@H](CO)C(C)C` [Example 1D], the pEC50 is below 7.00.
For the compound `COc1nc2c(cc1Cc1ccc(F)cc1F)c(=O)c(C(=O)O)cn2[C@H](CO)C(C)C` [Example 1E], the negative-log EC50 (pEC50) is 7.00 to 8.00.
With `COc1nc2c(cc1Cc1cccc(Cl)c1F)c(=O)c(C(=O)O)cn2[C@@H](C)CO` [Example 1F], the pEC50 is below 7.00.
Compound `CCC(C)[C@@H](CO)n1cc(C(=O)O)c(=O)c2cc(Cc3cccc(Cl)c3F)c(OC)nc21` (stereo partly shown) [Example 1G] showed a pEC50 above 8.00.
Regarding `COc1nc2c(cc1Cc1cccc(Cl)c1F)c(=O)c(C(=O)O)cn2[C@H](CO)C(C)(C)C` [Example 1H], the pEC50 was above 8.00.
`CC[C@@H](CO)n1cc(C(=O)O)c(=O)c2cc(Cc3cccc(Cl)c3F)c(OC)nc21` [Example 1I] showed a pEC50 of 7.00 to 8.00.
In turn, `CCCC(CO)n1cc(C(=O)O)c(=O)c2cc(Cc3cccc(Cl)c3F)c(OC)nc21` (stereo not shown) [Example 1J] gave a pEC50 of 7.00 to 8.00.
As to `COc1nc2c(cc1Cc1cccc(Cl)c1F)c(=O)c(C(=O)O)cn2[C@H](CO)CC(C)C` [Example 1K], the pEC50 is above 8.00.
Regarding `COc1nc2c(cc1Cc1cccc(Cl)c1F)c(=O)c(C(=O)O)cn2C(CO)CO` [Example 1M], the pEC50 is below 7.00.
In turn, `COc1nc2c(cc1Cc1cccc(Cl)c1F)c(=O)c(C(=O)O)cn2C1CCOCC1` [Example 1N] had a pEC50 below 7.00.
For `COc1nc2c(cc1Cc1cccc(Cl)c1F)c(=O)c(C(=O)O)cn2[C@H](CO)C1CCCCC1` [Example 1O], the pEC50 was above 8.00.
The value for `COc1nc2c(cc1Cc1cccc(Cl)c1F)c(=O)c(C(=O)O)cn2[C@H]1CCCC[C@@H]1O` [Example 1P] was below 7.00; that for `COc1nc2c(cc1Cc1cccc(Cl)c1F)c(=O)c(C(=O)O)cn2C[C@H](O)c1ccccc1` [Example 1Q] was below 7.00.
The value for `COc1nc2c(cc1Cc1cccc(Cl)c1F)c(=O)c(C(=O)O)cn2C[C@@H](O)c1ccccc1` [Example 1R] was below 7.00; that for `CC(C)(C)[C@@H](CO)n1cc(C(=O)O)c(=O)c2cc(Cc3cccc(Cl)c3F)c(N3CCOCC3)nc21` [Example 2A, (S)-6-(3-chloro-2-fluorobenzyl)-7-morpholin-1-(1-hydroxy-3,3-dimethylbutan-2-yl)-4-oxo-1,4-dihydro-1,8-naphthyridine-3-carboxylic acid] was above 8.00.
Compound `COCCN1CCN(c2nc3c(cc2Cc2cccc(Cl)c2F)c(=O)c(C(=O)O)cn3[C@H](CO)C(C)(C)C)CC1` [Example 2AA] had a pEC50 of 7.00 to 8.00.
In the case of `CC(C)(C)[C@@H](CO)n1cc(C(=O)O)c(=O)c2cc(Cc3cccc(Cl)c3F)c(O)nc21` [Example 2B, (S)-6-(3-chloro-2-fluorobenzyl)-7-hydroxy-1-(1-hydroxy-3,3-dimethylbutan-2-yl)-4-oxo-1,4-dihydro-1,8-naphthyridine-3-carboxylic acid], the pEC50 was 7.00 to 8.00.
In turn, `CC(C)(C)[C@@H](CO)n1cc(C(=O)O)c(=O)c2cc(Cc3cccc(Cl)c3F)c(NCCN3CCOCC3)nc21` [Example 2CC] had a pEC50 above 8.00.
The compound `CCOc1nc2c(cc1Cc1cccc(Cl)c1F)c(=O)c(C(=O)O)cn2[C@H](CO)C(C)(C)C` [Example 2C] gave a pEC50 above 8.00.
`CC(C)(C)[C@@H](CO)n1cc(C(=O)O)c(=O)c2cc(Cc3cccc(Cl)c3F)c(NCCCN3CCOCC3)nc21` [Example 2DD] gave a pEC50 above 8.00.
For `CC(C)Oc1nc2c(cc1Cc1cccc(Cl)c1F)c(=O)c(C(=O)O)cn2[C@H](CO)C(C)(C)C` [Example 2D], the pEC50 is 7.00 to 8.00.
For `CC(C)(C)[C@@H](CO)n1cc(C(=O)O)c(=O)c2cc(Cc3cccc(Cl)c3F)c(NCCCN3CCCC3=O)nc21` [Example 2EE] the value was above 8.00; for `CC(C)(C)[C@@H](CO)n1cc(C(=O)O)c(=O)c2cc(Cc3cccc(Cl)c3F)c(OCCO)nc21` [Example 2E], above 8.00.
`CC(C)(C)[C@@H](CO)n1cc(C(=O)O)c(=O)c2cc(Cc3cccc(Cl)c3F)c(NCc3ccccn3)nc21` [Example 2FF] gave a pEC50 above 8.00.
For `CC(C)(C)[C@@H](CO)n1cc(C(=O)O)c(=O)c2cc(Cc3cccc(Cl)c3F)c(OCCCO)nc21` [Example 2F] the value was above 8.00; for `CC(C)(C)[C@@H](CO)n1cc(C(=O)O)c(=O)c2cc(Cc3cccc(Cl)c3F)c(NCCCn3ccnc3)nc21` [Example 2GG], 7.00 to 8.00; for `CC(C)(C)[C@@H](CO)n1cc(C(=O)O)c(=O)c2cc(Cc3cccc(Cl)c3F)c(OCCCCO)nc21` [Example 2G], 7.00 to 8.00.
The compound `CC(C)(C)[C@@H](CO)n1cc(C(=O)NCCCn2ccnc2)c(=O)c2cc(Cc3cccc(Cl)c3F)c(NCCCn3ccnc3)nc21` [Example 2HH] had a pEC50 below 7.00.
In turn, `COCCOc1nc2c(cc1Cc1cccc(Cl)c1F)c(=O)c(C(=O)O)cn2[C@H](CO)C(C)(C)C` [Example 2H] showed a negative-log EC50 (pEC50) above 8.00.
The compound `COc1nc2c(cc1Cc1cccc(Cl)c1F)c(=O)c(C(=O)NCCO)cn2[C@H](CO)C(C)C` [Example 2II] showed a negative-log EC50 (pEC50) below 7.00.
Take `COCCCOc1nc2c(cc1Cc1cccc(Cl)c1F)c(=O)c(C(=O)O)cn2[C@H](CO)C(C)(C)C` [Example 2I]: the pEC50 is 7.00 to 8.00.
`CC(C)(C)[C@@H](CO)n1cc(C(=O)O)c(=O)c2cc(Cc3cccc(Cl)c3F)c(F)nc21` [Example 2JJ] gave a negative-log EC50 (pEC50) of 7.00 to 8.00.
As to `COCCCCOc1nc2c(cc1Cc1cccc(Cl)c1F)c(=O)c(C(=O)O)cn2[C@H](CO)C(C)(C)C` [Example 2J], the pEC50 is 7.00 to 8.00.
The value for `CC(C)[C@@H](CO)n1cc(C(=O)O)c(=O)c2cc(Cc3cccc(Cl)c3F)c(F)nc21` [Example 2KK] was 7.00 to 8.00; that for `CN(C)CCOc1nc2c(cc1Cc1cccc(Cl)c1F)c(=O)c(C(=O)O)cn2[C@H](CO)C(C)(C)C` [Example 2K] was 7.00 to 8.00.
For `CN(C)CCCOc1nc2c(cc1Cc1cccc(Cl)c1F)c(=O)c(C(=O)O)cn2[C@H](CO)C(C)(C)C` [Example 2L] the value was 7.00 to 8.00.
`CC(C)(C)[C@@H](CO)n1cc(C(=O)O)c(=O)c2cc(Cc3cccc(Cl)c3F)c(OCCN3CCOCC3)nc21` [Example 2M] showed a pEC50 of 7.00 to 8.00.
Turning to `CC(C)(C)[C@@H](CO)n1cc(C(=O)O)c(=O)c2cc(Cc3cccc(Cl)c3F)c(OCc3cccnc3)nc21` [Example 2N], the pEC50 is above 8.00.
For `CC(C)(C)[C@@H](CO)n1cc(C(=O)O)c(=O)c2cc(Cc3cccc(Cl)c3F)c(OCCN3CCCC3)nc21` [Example 2O] the value was 7.00 to 8.00.
Compound `CN(C)c1nc2c(cc1Cc1cccc(Cl)c1F)c(=O)c(C(=O)O)cn2[C@H](CO)C(C)(C)C` [Example 2P] had a pEC50 of 7.00 to 8.00.
The compound `CC(C)(C)[C@@H](CO)n1cc(C(=O)O)c(=O)c2cc(Cc3cccc(Cl)c3F)c(NCCO)nc21` [Example 2R] showed a pEC50 above 8.00.
On to `CC(C)(C)[C@@H](CO)n1cc(C(=O)O)c(=O)c2cc(Cc3cccc(Cl)c3F)c(NCCCO)nc21` [Example 2S], for which the pEC50 was 7.00 to 8.00.
As for `COCCNc1nc2c(cc1Cc1cccc(Cl)c1F)c(=O)c(C(=O)O)cn2[C@H](CO)C(C)(C)C` [Example 2T], the pEC50 is above 8.00.
For `COCCCNc1nc2c(cc1Cc1cccc(Cl)c1F)c(=O)c(C(=O)O)cn2[C@H](CO)C(C)(C)C` [Example 2U] the value was above 8.00; for `CC(C)(C)[C@@H](CO)n1cc(C(=O)O)c(=O)c2cc(Cc3cccc(Cl)c3F)c(N3CC[C@@H](O)C3)nc21` [Example 2W], 7.00 to 8.00.
Regarding `CC(C)(C)[C@@H](CO)n1cc(C(=O)O)c(=O)c2cc(Cc3cccc(Cl)c3F)c(N3CCC(O)CC3)nc21` [Example 2X], the pEC50 is 7.00 to 8.00.
`CC(C)(C)[C@@H](CO)n1cc(C(=O)O)c(=O)c2cc(Cc3cccc(Cl)c3F)c(N3CCC(CO)CC3)nc21` [Example 2Y]: the pEC50 was 7.00 to 8.00.
For `CC(C)(C)[C@@H](CO)n1cc(C(=O)O)c(=O)c2cc(Cc3cccc(Cl)c3F)c(N3CCN(CCO)CC3)nc21` [Example 2Z] the value was 7.00 to 8.00; for `CC(C)(C)[C@@H](CO)n1cc(C(=O)O)c(=O)c2cc(Cc3cccc(Cl)c3F)c(N)nc21` [Example 3A, (S)-7-Amino-6-(3-chloro-2-fluorobenzyl)-1-(1-hydroxy-3,3-dimethylbutan-2-yl)-4-oxo-1,4-dihydro-1,8-naphthyridine-3-carboxylic acid], above 8.00; for `Cc1nc2c(cc1Cc1cccc(Cl)c1F)c(=O)c(C(=O)O)cn2[C@H](CO)C(C)(C)C` [Example 3B, 6-(3-Chloro-2-fluorobenzyl)-1-((S)-1-hydroxymethyl-2,2-dimethyl-propyl)-7-methyl-4-oxo-1,4-dihydro-1,8-naphthyridine-3-carboxylic acid], 7.00 to 8.00.
In the case of `CC(C)(C)[C@@H](CO)n1cc(C(=O)O)c(=O)c2cc(Cc3cccc(Cl)c3F)c(CCCO)nc21` [Example 3C, 6-(3-Chloro-2-fluoro-benzyl)-1-((S)-1-hydroxymethyl-2,2-dimethyl-propyl)-7-(3-hydroxy-propyl)-4-oxo-1,4-dihydro-1,8-naphthyridine-3-carboxylic acid], the pEC50 is above 8.00.
As for `CC(C)[C@@H](CO)n1cc(C(=O)O)c(=O)c2cc(Cc3cccc(Cl)c3F)cnc21` [Example 4A, (S)-6-(3-chloro-2-fluorobenzyl)-1-(1-hydroxy-3-methylbutan-2-yl)-4-oxo-1,4-dihydro-1,8-naphthyridine-3-carboxylic acid], the pEC50 was 7.00 to 8.00.
For the compound `CC(C)[C@@H](CO)n1cc(C(=O)O)c(=O)c2cc(Cc3ccccc3F)cnc21` [Example 4B], the pEC50 is below 7.00.
`CC(C)[C@@H](CO)n1cc(C(=O)O)c(=O)c2cc(Cc3ccccc3)cnc21` [Example 4C] gave a pEC50 below 7.00.
`O=C(O)c1cn(CCO)c2ncc(Cc3cccc(Cl)c3F)cc2c1=O` [Example 4D] had a pEC50 below 7.00.
In turn, `O=C(O)c1cn(CCO)c2ncc(Cc3cccc(Cl)c3Cl)cc2c1=O` [Example 4E] showed a pEC50 below 7.00.
